Experimental data as given in EP0968998A1, “Cosmetic compositions, ceramide analogues with anti-elastase activity and process for their preparation” (ELF ATOCHEM S.A., priority 1998, dated 2000).

Molecular target: T1, élastase de leucocytes humains (Homo sapiens, UniProt P08246)
T1 construct: purchased Elastin Products Co. SE 563; host or cells: human leukocytes, as the enzyme's name says
T1 sequence (P08246 30-267): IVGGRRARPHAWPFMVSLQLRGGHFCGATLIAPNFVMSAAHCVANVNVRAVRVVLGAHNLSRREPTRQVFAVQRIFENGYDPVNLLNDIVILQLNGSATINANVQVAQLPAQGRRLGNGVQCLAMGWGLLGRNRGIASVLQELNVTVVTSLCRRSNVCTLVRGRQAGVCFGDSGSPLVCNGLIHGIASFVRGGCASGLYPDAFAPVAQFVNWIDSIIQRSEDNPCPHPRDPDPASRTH
Experiment: Anti-elastase activity: release of p-nitroaniline from N-succinyl-(Ala)3-p-nitroanilide, spectrophotometry at 410 nm
Format: biochemical
Conditions: pH 8, 37°C, pH8, 5 min preincubation, substrate 250 µM, read-out: % I (%)
From the text: Les exemples qui suivent permettent d'illustrer l'invention. Dans ces exemples, on utilise les méthodes d'analyse suivantes : - Spectrographie infrarouge (IR) Les spectres sont réalisés au moyen d'un appareil PERKIN ELMER 1760 IRTF, en dispersion dans KBr à 1 %. Les valeurs sont exprimées en nombre d'onde par centimètre. - Résonance magnétique nucléaire (RMN) Les spectres sont réalisés au moyen d'un appareil BRUCKER DRX 500, à 500 MHz (^1H) et 125 MHz (^13C) dans le DMSO-d6. La calibration de l'appareil est effectuée au moyen de DMSO. Les déplacements chimiques sont exprimés en ppm. L'aspect des signaux est noté : singulet (s), doublet (d), triplet (t), quadruplet (q), multiplet (m), quintuplet (*5) et couplage AB (AB). - Mesure de l'activité anti-élastase L'activité anti-élastase est mesurée selon la méthode qui consiste à faire réagir l'élastase de leucocytes humains (référence SE 563; Elastin Products Co.; Owensville, MO, USA) avec le N-succinyl-(Ala)3-p-nitroanilide (réf. S4760; Sigma) et mesurer la libération de p-nitroaniline. On utilise le N-succinyl-(Ala)3-p-nitroanilide en solution dans le tétrahydrofurane et une solution d'élastase à 100 mg/ml dans un mélange de glycérol et de tampon acétate de sodium (50/50; v/v), pH5. L'activité de l'enzyme est mesurée à 37°C dans 100 mM de tampon Tris-HCI, pH8 contenant 0,01 % de Triton X-100 (volume/volume) et 0,02 % d'azide de sodium (poids/volume). Le céramide à tester, solubilisé dans le tétrahydrofurane (concentration en THF = 0,5 % en volume) est préincubé en présence de l'enzyme (0,05 mg/ml) dans le tampon pendant 5 minutes à 37°C. On ajoute le N-succinyl-(Ala)3-p-nitroanilide (concentration finale : 250 µM) et on mesure la libération de la p-nitroaniline dans une cuve en quartz par spectrophotométrie à 410 nm. La capacité inhibitrice du céramide est exprimée en pourcentage d'inhibition (% I) selon la relation : %I = (1 -(Vi)/(Vo))×100 [formula] dans laquelle Vi et Vo sont les vitesses d'apparition de la p-nitroaniline en présence et en absence d'inhibiteur respectivement. - Mesure de l'amélioration de la barrière cutanée a) mesure de la Perte Insensible en Eau (PIE) La mesure de la PIE permet de quantifier la très faible quantité d'eau qui diffuse passivement à travers le stratum corneum. Ce paramètre représente un très bon index de la fonction barrière du stratum corneum. Cette méthode est surtout utilisée pour contrôler l'efficacité de formules cosmétiques qui, contenant certains types de lipides sont capables de diminuer la PIE et, en conséquence, d'empêcher la déshydratation du stratum corneum. La sonde est laissée en contact de la peau pendant 2 minutes environ de façon à atteindre une position d'équilibre. PIE = D'(dP)/(dx)(gradient de pression de vapeur) [formula] Les valeurs sont exprimées en g/m^2/heure et permettent de calculer un delta de PIE = PIE (peau traitée) - PIE (peau témoin). L'appareil utilisé est un Evaporimètre EPI de Servomed. Les mesures sont effectuées sur deux groupes de 15 volontaires sains ayant une peau sèche, avant l'application du produit (t=0) et après l'application (t=0,5 heure, 1 heure, 3 heures et 6 heures) sur la face interne des deux avant-bras. L'analogue de céramide selon l'invention ou le céramide témoin est incorporé dans une crème ayant la composition suivante (en % en poids) : […]

With `CCCCCCCCCCCCCCCCCC(=O)NC(CC)(CO)COC(=O)CCCCCCCCCCCCCCCCC` (centres unmarked) [Exemple 4, 1-stéaroyl-2-éthyl-2-stéaroylamino-1,3-propanediol] as the compound, how does the inhibition at 250 µM (Concentration 250 µM) read?
Its inhibition at 250 µM is 67%.

What about the inhibition at 500 µM (Concentration 500 µM) of the same compound?
The inhibition at 500 µM was 86%.
